ChEMBL document CHEMBL5291721, “A preclinical secondary pharmacology resource illuminates target-adverse drug reaction associations of marketed drugs” (Nat Commun, 2023)

Experiments:
D(1A) dopamine receptor = D(1A) dopamine receptor (Homo sapiens, UniProt P21728)
[1] = target: T1, 5-hydroxytryptamine receptor 1A (Homo sapiens, UniProt P08908); type: functional, cell-based
T1 sequence (P08908 whole entry): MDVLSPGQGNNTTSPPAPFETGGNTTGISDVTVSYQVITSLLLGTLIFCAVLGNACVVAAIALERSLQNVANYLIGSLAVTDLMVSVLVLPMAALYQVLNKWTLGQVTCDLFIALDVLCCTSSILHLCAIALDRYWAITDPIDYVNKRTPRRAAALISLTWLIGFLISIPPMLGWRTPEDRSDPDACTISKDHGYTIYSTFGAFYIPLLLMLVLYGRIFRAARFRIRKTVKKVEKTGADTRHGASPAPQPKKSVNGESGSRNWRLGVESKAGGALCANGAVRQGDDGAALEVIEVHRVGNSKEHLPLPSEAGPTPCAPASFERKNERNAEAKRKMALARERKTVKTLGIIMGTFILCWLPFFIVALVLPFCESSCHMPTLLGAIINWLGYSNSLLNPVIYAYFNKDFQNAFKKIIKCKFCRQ

Mu-type opioid receptor [2] = target: T2, Mu-type opioid receptor (Homo sapiens, UniProt P35372); test: biochemical; type: functional
[3] = target: 5-hydroxytryptamine receptor 2A (Homo sapiens, UniProt P28223); type: functional, cell-based
[4] = target: Beta-2 adrenergic receptor (Homo sapiens, UniProt P07550); type: functional, cell-based
[5] = target: T3, Neuropeptide Y receptor type 1 (Homo sapiens, UniProt P25929)
T3 sequence (P25929 whole entry): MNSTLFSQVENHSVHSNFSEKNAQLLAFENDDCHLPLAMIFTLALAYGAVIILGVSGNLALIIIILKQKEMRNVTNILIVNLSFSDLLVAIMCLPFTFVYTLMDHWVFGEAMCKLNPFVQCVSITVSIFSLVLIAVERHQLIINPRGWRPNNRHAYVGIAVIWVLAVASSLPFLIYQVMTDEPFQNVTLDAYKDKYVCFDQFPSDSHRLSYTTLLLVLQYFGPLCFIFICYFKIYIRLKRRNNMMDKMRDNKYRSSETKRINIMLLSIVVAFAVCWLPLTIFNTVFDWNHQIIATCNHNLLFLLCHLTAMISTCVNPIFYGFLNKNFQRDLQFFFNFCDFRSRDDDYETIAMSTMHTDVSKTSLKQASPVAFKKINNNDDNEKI

[6] = target: Beta-1 adrenergic receptor (Homo sapiens, UniProt P08588); type: functional
Adenosine receptor A1 = target: T4, Adenosine receptor A1 (Homo sapiens, UniProt P30542)
T4 sequence (P30542 whole entry): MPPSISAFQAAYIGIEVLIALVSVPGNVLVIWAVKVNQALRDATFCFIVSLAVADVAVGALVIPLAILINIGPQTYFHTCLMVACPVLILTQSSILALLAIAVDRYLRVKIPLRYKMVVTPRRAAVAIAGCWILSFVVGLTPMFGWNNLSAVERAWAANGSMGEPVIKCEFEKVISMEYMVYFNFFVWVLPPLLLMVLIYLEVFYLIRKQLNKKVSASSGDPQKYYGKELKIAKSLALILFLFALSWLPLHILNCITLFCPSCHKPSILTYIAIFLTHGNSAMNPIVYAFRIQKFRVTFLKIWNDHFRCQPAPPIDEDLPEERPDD

[7] = target: T5, Type-1 angiotensin II receptor (Homo sapiens, UniProt P30556)
T5 sequence (P30556 whole entry): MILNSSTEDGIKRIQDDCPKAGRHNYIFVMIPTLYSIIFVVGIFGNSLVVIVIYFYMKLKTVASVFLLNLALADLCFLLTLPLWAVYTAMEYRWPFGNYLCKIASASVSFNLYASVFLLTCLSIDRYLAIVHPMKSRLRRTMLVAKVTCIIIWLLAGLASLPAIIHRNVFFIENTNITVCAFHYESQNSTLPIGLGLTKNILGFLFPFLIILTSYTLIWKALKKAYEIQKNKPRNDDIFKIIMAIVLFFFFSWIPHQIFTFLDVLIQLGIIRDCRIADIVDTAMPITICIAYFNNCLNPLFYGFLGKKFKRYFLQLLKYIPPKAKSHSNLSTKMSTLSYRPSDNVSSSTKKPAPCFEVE

Vasopressin V2 receptor = Vasopressin V2 receptor (Homo sapiens, UniProt P30518)
[8] = target: T6, Gastrin/cholecystokinin type B receptor (Homo sapiens, UniProt P32239)
T6 sequence (P32239 whole entry): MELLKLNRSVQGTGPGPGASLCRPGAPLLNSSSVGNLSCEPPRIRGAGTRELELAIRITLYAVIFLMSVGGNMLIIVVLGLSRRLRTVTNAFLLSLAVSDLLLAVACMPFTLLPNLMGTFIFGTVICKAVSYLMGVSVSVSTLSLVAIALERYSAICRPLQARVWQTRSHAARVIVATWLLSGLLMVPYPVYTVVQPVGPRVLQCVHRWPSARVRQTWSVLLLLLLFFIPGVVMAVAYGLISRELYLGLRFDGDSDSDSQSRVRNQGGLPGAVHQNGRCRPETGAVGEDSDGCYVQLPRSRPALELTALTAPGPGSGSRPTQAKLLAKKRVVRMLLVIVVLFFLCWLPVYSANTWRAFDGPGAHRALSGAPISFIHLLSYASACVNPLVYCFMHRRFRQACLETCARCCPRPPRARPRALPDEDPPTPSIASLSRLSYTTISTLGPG

[9] = target: Growth hormone secretagogue receptor type 1 (Homo sapiens, UniProt Q92847)
Mu-type opioid receptor [10] = target: T2, Mu-type opioid receptor
Cannabinoid receptor 1 = Cannabinoid receptor 1 (Homo sapiens, UniProt P21554)
Note: assay procedure not described here.

Cannabinoid receptor 1, sequence (P21554 whole entry): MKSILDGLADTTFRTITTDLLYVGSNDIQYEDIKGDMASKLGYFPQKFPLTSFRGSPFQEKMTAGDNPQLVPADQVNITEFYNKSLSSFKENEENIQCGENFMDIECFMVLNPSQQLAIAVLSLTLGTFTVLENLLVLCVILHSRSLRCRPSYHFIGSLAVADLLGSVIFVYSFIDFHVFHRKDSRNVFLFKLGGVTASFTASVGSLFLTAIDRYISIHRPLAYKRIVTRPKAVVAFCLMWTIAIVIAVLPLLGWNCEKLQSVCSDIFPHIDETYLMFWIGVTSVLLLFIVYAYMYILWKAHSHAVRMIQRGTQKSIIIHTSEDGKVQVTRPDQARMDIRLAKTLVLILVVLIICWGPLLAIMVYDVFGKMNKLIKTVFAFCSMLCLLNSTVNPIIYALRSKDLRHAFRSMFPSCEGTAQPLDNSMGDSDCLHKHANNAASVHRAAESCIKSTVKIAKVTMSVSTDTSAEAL
T2 sequence (P35372 whole entry): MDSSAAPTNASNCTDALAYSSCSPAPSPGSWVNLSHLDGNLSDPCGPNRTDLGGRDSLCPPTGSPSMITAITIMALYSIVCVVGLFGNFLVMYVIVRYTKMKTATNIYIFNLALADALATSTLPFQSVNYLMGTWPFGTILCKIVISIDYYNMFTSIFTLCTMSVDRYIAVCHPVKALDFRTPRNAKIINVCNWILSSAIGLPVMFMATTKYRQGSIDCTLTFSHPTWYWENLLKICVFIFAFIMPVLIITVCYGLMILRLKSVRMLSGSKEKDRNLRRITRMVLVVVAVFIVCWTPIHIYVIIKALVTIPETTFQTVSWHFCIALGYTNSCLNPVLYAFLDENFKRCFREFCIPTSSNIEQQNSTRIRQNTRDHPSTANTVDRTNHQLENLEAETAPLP
Vasopressin V2 receptor, sequence (P30518 whole entry): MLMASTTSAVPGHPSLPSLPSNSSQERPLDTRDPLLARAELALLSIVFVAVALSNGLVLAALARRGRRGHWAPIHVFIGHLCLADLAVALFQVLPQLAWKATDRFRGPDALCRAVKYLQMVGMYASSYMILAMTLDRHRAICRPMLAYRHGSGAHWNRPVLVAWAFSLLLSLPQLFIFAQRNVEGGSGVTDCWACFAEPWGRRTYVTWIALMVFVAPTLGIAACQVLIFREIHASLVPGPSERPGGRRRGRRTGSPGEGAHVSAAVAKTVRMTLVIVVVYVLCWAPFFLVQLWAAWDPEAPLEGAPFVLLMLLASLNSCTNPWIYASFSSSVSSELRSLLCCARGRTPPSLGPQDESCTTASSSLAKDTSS
Beta-1 adrenergic receptor, sequence (P08588 whole entry): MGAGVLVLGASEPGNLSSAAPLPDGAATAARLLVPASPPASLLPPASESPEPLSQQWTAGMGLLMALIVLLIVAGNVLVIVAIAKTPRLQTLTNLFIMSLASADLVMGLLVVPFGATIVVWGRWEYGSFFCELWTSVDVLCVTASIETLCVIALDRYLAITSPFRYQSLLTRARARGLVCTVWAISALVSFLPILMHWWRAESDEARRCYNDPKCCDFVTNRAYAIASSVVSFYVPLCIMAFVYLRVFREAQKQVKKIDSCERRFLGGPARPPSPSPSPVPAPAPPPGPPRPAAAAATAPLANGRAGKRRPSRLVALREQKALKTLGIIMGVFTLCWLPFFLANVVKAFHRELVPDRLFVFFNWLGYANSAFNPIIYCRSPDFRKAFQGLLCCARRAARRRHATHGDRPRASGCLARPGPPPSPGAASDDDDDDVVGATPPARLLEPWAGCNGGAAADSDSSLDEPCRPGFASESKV
Growth hormone secretagogue receptor type 1, sequence (Q92847 whole entry): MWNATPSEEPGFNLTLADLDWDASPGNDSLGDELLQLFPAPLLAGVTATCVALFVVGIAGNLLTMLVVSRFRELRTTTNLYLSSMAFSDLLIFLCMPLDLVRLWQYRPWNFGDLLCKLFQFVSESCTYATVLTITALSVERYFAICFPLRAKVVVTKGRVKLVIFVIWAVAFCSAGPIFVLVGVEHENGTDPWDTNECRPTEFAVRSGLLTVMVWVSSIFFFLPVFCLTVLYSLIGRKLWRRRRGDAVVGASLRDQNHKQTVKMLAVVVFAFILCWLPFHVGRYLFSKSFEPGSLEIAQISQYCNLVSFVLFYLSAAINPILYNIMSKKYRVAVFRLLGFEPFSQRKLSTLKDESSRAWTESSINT
Beta-2 adrenergic receptor, sequence (P07550 whole entry): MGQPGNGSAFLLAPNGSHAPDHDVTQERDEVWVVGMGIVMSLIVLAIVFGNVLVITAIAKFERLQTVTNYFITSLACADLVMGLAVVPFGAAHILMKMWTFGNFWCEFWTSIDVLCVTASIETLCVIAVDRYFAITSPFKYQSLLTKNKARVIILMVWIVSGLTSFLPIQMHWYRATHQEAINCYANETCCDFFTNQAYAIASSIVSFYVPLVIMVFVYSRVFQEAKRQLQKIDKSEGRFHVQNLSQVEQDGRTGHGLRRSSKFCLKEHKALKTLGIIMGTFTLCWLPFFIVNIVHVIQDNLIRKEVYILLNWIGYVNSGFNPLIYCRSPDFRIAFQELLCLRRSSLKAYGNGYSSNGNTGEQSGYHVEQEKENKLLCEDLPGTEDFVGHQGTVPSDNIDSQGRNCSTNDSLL
D(1A) dopamine receptor, sequence (P21728 whole entry): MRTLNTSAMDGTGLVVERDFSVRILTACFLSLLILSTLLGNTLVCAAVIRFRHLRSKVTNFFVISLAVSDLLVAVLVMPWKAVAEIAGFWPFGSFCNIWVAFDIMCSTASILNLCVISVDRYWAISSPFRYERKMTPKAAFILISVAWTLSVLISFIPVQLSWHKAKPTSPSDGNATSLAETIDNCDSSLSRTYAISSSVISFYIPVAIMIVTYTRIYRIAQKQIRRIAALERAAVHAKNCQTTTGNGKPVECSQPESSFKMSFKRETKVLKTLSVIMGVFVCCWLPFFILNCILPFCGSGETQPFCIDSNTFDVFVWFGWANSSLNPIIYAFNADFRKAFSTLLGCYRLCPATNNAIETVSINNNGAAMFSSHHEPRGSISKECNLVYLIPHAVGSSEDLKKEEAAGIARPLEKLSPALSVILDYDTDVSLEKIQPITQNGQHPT
5-hydroxytryptamine receptor 2A, sequence (P28223 whole entry): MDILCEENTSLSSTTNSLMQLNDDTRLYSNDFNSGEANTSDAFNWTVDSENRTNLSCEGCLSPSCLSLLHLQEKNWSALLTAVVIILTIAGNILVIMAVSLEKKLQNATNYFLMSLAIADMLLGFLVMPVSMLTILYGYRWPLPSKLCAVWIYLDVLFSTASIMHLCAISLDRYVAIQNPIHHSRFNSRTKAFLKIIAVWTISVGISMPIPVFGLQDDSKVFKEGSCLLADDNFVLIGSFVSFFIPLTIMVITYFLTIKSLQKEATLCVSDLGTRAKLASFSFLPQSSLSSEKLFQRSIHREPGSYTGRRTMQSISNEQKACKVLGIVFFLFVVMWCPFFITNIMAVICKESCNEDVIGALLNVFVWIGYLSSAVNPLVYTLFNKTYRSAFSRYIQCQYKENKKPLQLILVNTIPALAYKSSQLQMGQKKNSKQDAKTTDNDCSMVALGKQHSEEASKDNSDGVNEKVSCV

Row | AC50 (Mu-type opioid receptor [10]) [µM] | AC50 (Cannabinoid receptor 1) [µM] | Structure (SMILES) | AC50 (D(1A) dopamine receptor) [µM] | AC50 [1] [µM] | AC50 (Mu-type opioid receptor [2]) [µM] | AC50 [3] [µM] | AC50 [4] [µM] | AC50 [5] [µM] | AC50 [6] [µM] | AC50 (Adenosine receptor A1) [µM] | AC50 [7] [µM] | AC50 (Vasopressin V2 receptor) [µM] | AC50 [8] [µM] | AC50 [9] [µM]
1 | – | – | CO/N=C(\C(=O)N[C@@H]1C(=O)N2C(C(=O)OCOC(=O)C(C)(C)C)=C(C)CS[C@H]12)c1csc(N)n1 | > 30 | > 30 | > 30 | > 30 | > 30 | – | – | – | – | – | – | –
2 | – | – | O=C(Cn1ccnc1[N+](=O)[O-])NCc1ccccc1 [BENZNIDAZOLE] | > 30 | – | > 30 | > 30 | – | > 30 | > 30 | > 30 | > 30 | > 30 | > 30 | > 30
3 | > 30 | > 10 | C[N+](C)(C)CCOC(N)=O [CARBAMOYLCHOLINE] | – | > 30 | > 30 | – | > 30 | > 10 | > 10 | > 10 | > 10 | > 10 | – | > 10
4 | – | – | COCC1=C(C(=O)OC(C)OC(=O)OC(C)C)N2C(=O)[C@@H](NC(=O)/C(=N\OC)c3csc(N)n3)[C@H]2SC1 (stereo partly drawn) [CEFPODOXIME PROXETIL] | > 30 | > 30 | > 30 | > 30 | > 30 | – | – | – | – | – | – | –
5 | – | – | NS(=O)(=O)c1cc2c(cc1Cl)NC(CC1CCCC1)NS2(=O)=O (stereo not drawn) [CYCLOPENTHIAZIDE] | > 30 | > 30 | > 30 | > 30 | > 30 | – | – | – | – | – | – | –
6 | – | – | Nc1nc(-n2cc(C(=O)O)c(=O)c3cc(F)c(N4CC(O)C4)c(Cl)c32)c(F)cc1F [DELAFLOXACIN] | > 30 | – | – | – | – | – | – | – | – | – | – | –
7 | – | – | CC1=NN(c2ccccc2)C(=O)C1 [EDARAVONE] | > 30 | – | – | – | – | – | – | – | – | – | – | –
8 | – | – | N/N=c1/cc2c(n[nH]1)CCN(C(=O)c1ccccc1)C2 [ENDRALAZINE] | > 30 | > 30 | > 30 | > 30 | > 30 | – | – | – | – | – | – | –
9 | – | – | CC(C)=CCC1C(=O)N(c2ccccc2)N(c2ccccc2)C1=O [FEPRAZONE] | > 30 | – | – | – | – | – | – | – | – | – | – | –
10 | – | – | CN1C(=O)N(C)C2C1N(C)C(=O)N2C (stereo not drawn) [MEBICAR] | > 30 | > 30 | – | > 30 | > 30 | – | – | – | – | – | – | –
11 | – | – | Cn1cc[nH]c1=S [METHIMAZOLE] | > 30 | – | – | – | – | – | – | – | – | – | – | –
12 | – | – | NC(=O)c1cccc2cn(-c3ccc([C@@H]4CCCNC4)cc3)nc12 [NIRAPARIB] | > 30 | – | – | – | – | – | – | – | – | – | – | –
13 | – | – | Nc1ccc(/N=N/c2ccccc2)c(N)n1 [PHENAZOPYRIDINE] | > 30 | – | – | > 30 | > 30 | – | – | – | – | – | – | –
14 | 6.5 | > 10 | CN(C)CCCN1c2ccccc2Sc2ccccc21 [PROMAZINE] | – | > 10 | 2.9 | – | > 30 | > 30 | > 10 | > 30 | > 10 | > 30 | > 30 | > 30

Row | Structure (SMILES) | AC50 (Mu-type opioid receptor [10]) [µM] | AC50 (Cannabinoid receptor 1) [µM] | AC50 (D(1A) dopamine receptor) [µM] | AC50 [1] [µM] | AC50 (Mu-type opioid receptor [2]) [µM] | AC50 [3] [µM] | AC50 [4] [µM] | AC50 [5] [µM] | AC50 [6] [µM] | AC50 (Adenosine receptor A1) [µM] | AC50 [7] [µM] | AC50 (Vasopressin V2 receptor) [µM] | AC50 [8] [µM] | AC50 [9] [µM]
15 | O=C(Nc1ccccc1)OCC(CN1CCCCC1)OC(=O)Nc1ccccc1 (stereo not drawn) [DIPERODON] | 1.8 | > 10 | – | > 10 | 4.1 | > 30 | > 30 | > 30 | > 10 | > 30 | > 30 | > 30 | > 30 | > 30
